In PMC3038857, “Using Nuclear Receptor Activity to Stratify Hepatocarcinogens” (PLoS ONE, 2011):
Read-outs that look alike come from different tables or passages of the source.

Assays:
Rat Liver [1] = settings: chronic study, ref ToxRefDB, cited from earlier work
ABCB1 = assay: CLZD_ABCB1: Change in expression of ABCB1 (primary human hepatocytes); assay type: cell-based; settings: 24 hr
Method: (§1) This is a collection of multiplexed gene expression assays focused on Phase I and II xenobiotic metabolizing enzymes and transporters. Human primary cell cultures were treated with chemicals at 5 concentrations (0.004-40 [drawing 42] M) for 6, 24 and 48 hr. Concentration- and time-response profiles of chemicals were measured by the expression of key nuclear receptor target genes, activities of CYP1A enzymes (EROD), and cell morphology. Fourteen gene targets were monitored by quantitative nuclease protection assay including: six representative cytochrome P-450 genes, four hepatic transporters, three Phase II conjugating enzymes, and one endogenous metabolism gene involved in cholesterol synthesis. The target genes associated with nuclear receptor pathways are as follows: [drawing 43] and [drawing 44] with [drawing 45]; [drawing 46] , [drawing 47] , [drawing 48] , [drawing 49] , [drawing 50] and [drawing 51] with [drawing 52]; [drawing 53] , [drawing 54] , [drawing 55] and [drawing 56] with [drawing 57]; [drawing 58] with [drawing 59]; and [drawing 60] with [drawing 61] . Assays were run in primary human hepatocyte cultures by CellzDirect Invitrogen Inc. (Durham, NC), in collaboration with EPA.
(§2) Multiplexed Gene Expression in Human Primary Hepatocytes: This is a collection of multiplexed gene expression assays focused on Phase I and II metabolic enzymes and transporters. […] Fourteen gene targets were monitored by quantitative nuclease protection assay: six representative cytochrome P450 genes, four hepatic transporters, three Phase II conjugating enzymes, and one endogenous metabolism gene involved in cholesterol synthesis. Cells were exposed at 5 concentrations (0.004-40 µM) for 6, 24 or 48 hr. Gene targets are sentinels for five nuclear receptor signaling pathways: AhR, CAR, PXR, FXR, and PPARα. All gene are associated with nuclear receptor pathways: CYP1A1 and CYP1A2 with AHR; ABCB1, ABCG2, CYP2B6, CYP2C9, CYP2C19 and UGT1A1 with CAR; CYP3A4, GSTA2, SLCO1B1 and SULT2A1 with PXR; HMGCS2 with PPARA; and ABCB11 with FXR. […] Detailed description of the methods, data and analysis methods for this dataset will be presented in a separate publication.

CYP1A1 = assay: CLZD_CYP1A1: Change in expression of CYP1A1 (primary human hepatocytes); assay type: cell-based; settings: 24 hr
Method in brief: (§3)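 Chemicals are tested in human hepatocyte primary cultures over 0.004-40 µM (5 concentrations) for 6, 24 or 48 hr, and concentration- and time-dependent transcript changes are read by quantitative nuclease protection assay.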

CYP1A2 = assay: CLZD_CYP1A2: Change in expression of CYP1A2 (primary human hepatocytes); assay type: cell-based; settings: 24 hr
Method in brief: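 Primary human hepatocyte cultures were exposed to test chemicals at 5 concentrations (0.004-40 µM) for 6, 24 or 48 hr.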

Rat Liver [2] = settings: chronic study, ref ToxRefDB, cited from earlier work; remark: listed apart in the source
PXR (NR1I2) = target: T1, PXR (NR1I2) (Homo sapiens, UniProt O75469); assay: ATG_PXRE_CIS: Factorial reporter gene assay (HepG2); assay type: cell-based; parameters: endogenous in cells; host or cells: HepG2
T1 sequence (O75469 1-434): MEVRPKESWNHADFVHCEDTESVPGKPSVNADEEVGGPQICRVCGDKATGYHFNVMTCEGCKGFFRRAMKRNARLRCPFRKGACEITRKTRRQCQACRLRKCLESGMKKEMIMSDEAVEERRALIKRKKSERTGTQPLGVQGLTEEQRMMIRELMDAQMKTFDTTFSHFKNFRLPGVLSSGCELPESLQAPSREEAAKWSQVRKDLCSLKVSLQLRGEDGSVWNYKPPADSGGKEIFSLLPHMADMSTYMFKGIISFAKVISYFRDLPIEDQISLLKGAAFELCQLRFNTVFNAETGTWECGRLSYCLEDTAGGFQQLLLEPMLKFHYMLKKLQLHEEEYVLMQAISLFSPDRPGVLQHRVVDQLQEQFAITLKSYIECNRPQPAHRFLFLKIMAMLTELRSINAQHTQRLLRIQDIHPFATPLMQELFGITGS
Method in brief: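 HepG2 cells were transfected with a multiple reporter transcription unit (MRTU) library of 48 transcription factor binding sites for the cis-acting PXRE assay. The ERRg, FXR and PPARg assays used a trans mammalian one-hybrid system with a further 25-unit nuclear receptor MRTU library. Chemicals were tested at seven concentrations, from the MTC downward in three-fold steps.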

ABCB11 = assay: CLZD_ABCB11: Change in expression of ABCB11 (primary human hepatocytes); assay type: cell-based; settings: 24 hr
Method: as §1, §2

CAR (NR1I3) = target: T2, CAR (NR1I3) (Homo sapiens, UniProt Q14994); assay: ATG_PBREM_CIS: Factorial reporter gene assay (HepG2); assay type: cell-based; parameters: endogenous in cells; host or cells: HepG2; settings: HepG2
T2 sequence (Q14994 1-352): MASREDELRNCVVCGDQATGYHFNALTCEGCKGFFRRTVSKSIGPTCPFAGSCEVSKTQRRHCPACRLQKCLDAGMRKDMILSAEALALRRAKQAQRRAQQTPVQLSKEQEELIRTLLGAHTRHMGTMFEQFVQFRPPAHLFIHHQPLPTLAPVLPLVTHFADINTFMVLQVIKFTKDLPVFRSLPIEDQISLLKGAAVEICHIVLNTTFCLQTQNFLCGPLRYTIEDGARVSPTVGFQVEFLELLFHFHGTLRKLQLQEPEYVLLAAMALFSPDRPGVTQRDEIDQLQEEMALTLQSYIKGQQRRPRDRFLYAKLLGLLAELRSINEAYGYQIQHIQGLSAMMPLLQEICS
Method: A multiple reporter transcription unit (MRTU) library consisting of 48 transcription factor binding sites was transfected into the HepG2 human liver hepatoma cell line. In addition to the cis-acting reporter genes (CIS), a modification of the approach was used to generate a trans-system (TRANS) with a mammalian one-hybrid assay consisting of an additional 25 MRTU library reporting the activity of nuclear receptor super-family members. […] These assays were performed by Attagene Inc. (Morrisville NC) under contract to EPA.
In addition to the cis-acting reporter genes (CIS), a modification of the approach was used to generate a trans-system (TRANS) with a mammalian one-hybrid assay consisting of an additional 25 MRTU library reporting the activity of nuclear receptor super-family members. […] Chemicals were then tested in the CIS and TRANS assays at seven concentrations starting at the MTC and followed by three-fold serial dilutions. These assays were performed by Attagene Inc. (Morrisville NC) under contract to EPA. Detailed description of the methods, data and analysis methods for this dataset will be presented in a separate publication.

Rat Liver [3] = settings: chronic study, ref ToxRefDB, cited from earlier work; remark: listed apart in the source
CYP2B6 = assay: CLZD_CYP2B6: Change in expression of CYP2B6 (primary human hepatocytes); assay type: cell-based; settings: 24 hr
Method in brief: as §3

LXRa (NR1H2) = assay: NCGC_LXR_Agonist: GAL4 BLAM Reporter gene assay: LXRa; assay type: cell-based, human; settings: agonist mode
Method: These assays measure binding constants and enzyme inhibition values for nuclear receptors. The targets include [drawing 67] , [drawing 68] , [drawing 69] , [drawing 70] , [drawing 71] , [drawing 72] , [drawing 73] , [drawing 74] , [drawing 75] and [drawing 76] . Each of the nuclear receptor targets was measured in agonist mode. Assays were run at the NIH Chemical Genomics Center (Rockville, MD).
Cell-based HTS Assays: These assays measuring binding constants and enzyme inhibition values for nuclear receptors. The targets include AR, ER, FXR, LXR, PPARα, PPARδ, PPARγ, RXRα, RXRβ and PXR. Each of the nuclear receptor targets was measured in both agonist and antagonist mode, but the antagonist data is still undergoing analysis due to possible interference between cytotoxicity and assay activity, so antagonist mode data were not used in the present analysis. Assays were run at the NIH Chemical Genomics Center (Rockville, MD) as part of the Tox21 collaboration. […] The R^2 was required to be ≥0.5. Values where only the highest concentration exceeded 50% activity were excluded to eliminate weak or false positives. Detailed description of the methods, data and analysis methods for this dataset will be presented in a separate publication.

CYP3A4 = assay: CLZD_CYP3A4: Change in expression of CYP3A4 (primary human hepatocytes); assay type: cell-based; settings: 24 hr
Method in brief: as §3

Mouse Liver [4] = settings: chronic study, mouse liver; ref ToxRefDB; cited from earlier work
HMGCS2 = assay: CLZD_HMGCS2: Change in expression of HMGCS2 (primary human hepatocytes); assay type: cell-based; settings: 24 hr
Method: as §1, §2

Mouse Liver [5] = settings: chronic study, mouse liver; ref ToxRefDB; cited from earlier work; remark: listed apart in the source
Mouse Liver [6] = settings: chronic study, mouse liver; ref ToxRefDB; cited from earlier work; remark: listed apart in the source

In the case of `C#CCOS(=O)OC1CCCCC1Oc1ccc(C(C)(C)C)cc1` (centres unmarked) [r259], the CHR_Rat_Liver_3_NeoplasticLesion (Rat Liver [1]; rat) is given as 0, the CLZD_ABCB1_24 (ABCB1) is given as 5.227 and the CLZD_CYP1A1_24 (CYP1A1) is given as 4.821. The CLZD_CYP1A2_24 (CYP1A2) was 5.07, the CHR_Rat_Liver_2_PreneoplasticLesion (Rat Liver [2]; rat) was 0 and the ATG_PXRE_CIS (PXR (NR1I2); HepG2) was 6.18. The CLZD_ABCB11_24 (ABCB11) was 4.813, the ATG_PBREM_CIS (CAR (NR1I3)) was 5.854 and the CHR_Rat_Liver_1_AnyLesion (Rat Liver [3]; rat) was 0. It also gave a CLZD_CYP2B6_24 (CYP2B6) of 5.314.

In the case of `CCCOc1nn(C(=O)[N-]S(=O)(=O)c2ccccc2C(=O)OC)c(=O)n1C.[Na+]` [r264], the CHR_Rat_Liver_3_NeoplasticLesion (Rat Liver [1]; rat liver) is listed as 0, the CHR_Rat_Liver_2_PreneoplasticLesion (Rat Liver [2]; rat liver) is listed as 0 and the ATG_PXRE_CIS (PXR (NR1I2); HepG2 reporter) is listed as 4.252. The CHR_Rat_Liver_1_AnyLesion (Rat Liver [3]; rat liver) was 0 and the NCGC_LXR_Agonist (LXRa (NR1H2)) was 4.648.

In the case of `COc1cc(OC)nc(Sc2cccc(Cl)c2C(=O)[O-])n1.[Na+]` [r275], the CLZD_CYP3A4_24 (CYP3A4) is listed as 4.874, the CHR_Rat_Liver_3_NeoplasticLesion (Rat Liver [1]; rat liver) is listed as 0 and the CHR_Mouse_Liver_1_AnyLesion (Mouse Liver [4]) is listed as 6. For the same compound, the CHR_Rat_Liver_2_PreneoplasticLesion (Rat Liver [2]; rat liver) was 6, the CLZD_HMGCS2_24 (HMGCS2) was 5.29 and the CHR_Rat_Liver_1_AnyLesion (Rat Liver [3]; rat liver) was 6. The CHR_Mouse_Liver_2_PreneoplasticLesion (Mouse Liver [5]) was 6 and the CHR_Mouse_Liver_3_NeoplasticLesion (Mouse Liver [6]) was 6.
